According to article PMC6881072, “The repositioning of epigenetic probes/inhibitors identifies new anti-schistosomal lead compounds and chemotherapeutic targets” (PLoS Neglected Tropical Diseases, 2019):

What was measured:
Format in all cases: cell-based, Schistosoma mansoni
H3K36me2 = H3K36me2 detection in adult worm histone extracts; conditions: siRNA 50 ng/μl, adult worms, vs siLuc
Procedure: LLY-507 (6.25 μM), BAY-598 (25 μM) or siSmp_000700 treated male and female worms (alongside DMSO or siLuc controls; 21 individuals per condition) were homogenized with a TissueLyser (Qiagen) and total histones extracted using the EpiQuik^TM Total Histone Extraction Kit (Epigentek). Levels of H3K36me2 in adult histone extracts were measured using the EpiQuik^TM Global Di-Methyl Histone H3-K36 Quantification Kit (Fluorimetric, Epigentek). Technical duplicates of three biological replicates of each treatment were analysed according to the manufacturer’s instructions. Fluorescent readings (530EX/590EM nm) were obtained using a POLARstar Omega (BMG Labtech, UK) microtiter plate reader. Fluorescent values of the samples were corrected by subtracting the fluorescent readings of the blank (buffer only, provided in the kit). The mean of the adjusted control values (DMSO for LLY-507/BAY-598 treated worms and siLuc for siSmp_000700 treated worms) was set at 100% H3K36me2 and the standard deviation (SD) was calculated from the normalised values.

adult schistosome pairs = assay: RNAi of adult schistosome pairs: motility and egg counts; conditions: 168 h (7 days post-treatment), vs siLuc
Procedure: (§1) Following the perfusion of 7 wks infected mice, adult worms were recovered and RNAi performed as previously described. Briefly, smp_000700 and non-specific luciferase siRNA duplexes were purchased from Sigma (siSmp_000700 = sense: GGUAAUCGGUCAUGUGUAU[dT][dT] and anti-sense: AUACACAUGACCGAUUACC[dT][dT]; siLuc = sense CUUACGCUGAGUACUUCGA[dT][dT] and anti-sense UCGAAGUACUCAGCGUAAG[dT][dT]) and used at a final concentration of 50 ng/μl. Mixed sex adult worm pairs (for knockdown assessment by quantitative reverse transcription PCR, qRT-PCR) were cultured at 37°C in DMEM supplemented with 10% FCS, 2 mM L-glutamine, […] HEPES (Sigma-Aldrich, UK), 100 Units/ml penicillin and 100 μg/ml streptomycin in an atmosphere of 5% CO2 with a 70% media exchange performed every 48 h. The experiment was replicated three times (21 worm pairs/replicate). Quantitative reverse transcription PCR (qRT-PCR) of smp_000700 abundance was performed at 48 h and adult worm motility as well as egg counts were quantified at 168 h. Levels of H3K36me2 detected in schistosome histone extracts were assessed at 72 h.

smp_000700 = assay: RNAi knockdown assessment by qRT-PCR; conditions: 48 h, vs siLuc
Procedure: as §1
Following RNAi with siSmp_000700 and siLuc, mixed-sex adult worms were incubated for a total of 48 h before processing them for RNA isolation. […]

Substance: siSmp_000700: siRNA duplex directed against smp_000700; sense GGUAAUCGGUCAUGUGUAU[dT][dT] (antisense AUACACAUGACCGAUUACC; 3' dTdT overhangs, further chemistry not given here)
- reduction in H3K36me2 (H3K36me2): 15%
- adult worm motility after RNAi (adult schistosome pairs): significant reduction in adult worm motility
- egg production after RNAi (adult schistosome pairs): egg production defects
- reduction of smp_000700 mRNA abundance (KD) (smp_000700): 66%
